# Like-named read-outs stand apart in the source and are kept apart here.
# Key:
# [1] = test system: threshold for the perception of pain (hot plate, 55° C.); conditions: unless administered in toxic quantities; cited from earlier work
# [2] = test system: croton oil-induced mouse ear inflammation; test: croton oil-induced mouse ear inflammation test; assay type: in vivo, mouse (adult male Cox ICR mice); conditions: 25 μl of 1% ethanolic solution on left ear, 20-28 h and 5-6 h prior to sacrifice; 2% croton oil 4 h prior to sacrifice
# Experimental: Two trienamide compositions were tested for anti-inflammatory activity using the croton oil-induced mouse ear inflammation test.
# Adult male Cox ICR mice, 20-30 g, were treated on the left ear at 20-28 hours prior to sacrifice and a second time 5-6 hours prior to sacrifice with 25 μl of a 1% ethanolic solution of the test compound. Four hours prior to sacrifice both ears were treated with 25 μl of a 2% solution of croton oil in acetone. Each animal was then placed in individual cages and given food and water ad lib. Animals were sacrificed by cervical dislocation and both ears removed. From these ears, 0.38 cm^2 punch biopsies were taken from the central portion and each biopsy weighed on a Cahn electrobalance.
# For each test substance, a group of 10 animals was used. Control groups either had both ears treated with croton oil or just the right ear. It was experimentally determined that a value of 11.0 mg could be assumed for a punch biopsy from a normal untreated ear and still be within the experimental error of the test. Therefore, for the calculation of percent inhibition, a value of 11.0 mg was used. [formula]
# This calculation is valid only when no systemic effects are noted as evidenced by comparison of right ears of treated and control groups.
# Statistical signifance at the 95% confidence level was determined by the paired test.
# [3] = test system: analgesia and inflammation; test: topical administration to human: analgesia and inflammation; assay type: in vivo; conditions: Example VI, 0.4 ml to 80 cm^2 of forearm of 60 kg human
# Experimental: The octadecatrienamide is melted to a liquid with slight warming and combined with the other ingredients.
# A composition for topical application of N-vanillyl-5Z,8Z,11Z,14Z-eicosatetraenamide is prepared by a substantially similar method.
# [4] = test system: phenylbenzoquinone-induced writhing; test: phenylquinone writhing assay; assay type: in vivo, mouse (male mice); conditions: oral gavage 3 h before i.p. 0.2% phenylbenzoquinone; 10 minute period; vehicle control 17.4 ± 1.7
# Experimental: Three trienamide composition were tested for analgesic and anti-inflammatory activity using the phenylquinone writhing assay.
# Groups of eight male mice weighing between approximately 25 and 30 g were dosed orally by gavage with the composition to be tested. Identical groups of mice were dosed with control compositions. Three hours after this initial administration, the mice were injected intraperitoneally with a 0.2% solution of phenylbenzoquinone in aqueous ethanol. The ability of the analgesic compositions tested to relieve the discomfort induced was measured by counting the number of abdominal contractions, or "writhes", occurring in each mouse during a 10 minute period beginning 10 minutes after injection of the phenylbenzoquinone solution.
# [5] = test system: analgesia and inflammation; test: oral administration to human: analgesia and inflammation; assay type: in vivo
# Experimental: A composition for oral administration of N-vanillyl-5Z,8Z,11Z,14Z-eicosatetraenamide is prepared by a substantially similar method.
# [6] = test system: analgesia and inflammation; test: intramuscular administration to human: analgesia and inflammation; assay type: in vivo; conditions: Example III, ethyl oleate/benzyl alcohol, 1.5 ml in 65 kg human
# Experimental: The octadecatrienamide is dissolved in the solution combining ethyl oleate and benzyl alcohol, sealed into airtight 5 ml ampoules, and sterilized by autoclaving.
# A composition for parenteral administration of N-vanillyl-5Z,8Z,11Z,14Z-eicosatetraenamide is prepared by a substantially similar method.
# [7] = test system: threshold for the perception of pain (hot plate, 55° C.); test: Rodent Hot Plate Test (rats, VL)
# [8] = test system: analgesia and inflammation; conditions: background, literature on capsaicin; cited from earlier work
# [9] = test system: analgesia and inflammation; test: analgesic and anti-inflammatory activity (general statement); assay type: in vivo
# [10] = toxicity and narcotic side effects (general statement); assay type: in vivo
# [11] = Example IV, sesame oil soft gelatin capsules, two capsules of 225 mg in 60 kg human
# [12] = Example V, syrup, one teaspoon in 70 kg adult human
structure (smiles),measurement,setting,value
CC(=O)Nc1ccc(O)cc1 [acetaminophen],activity in the RHP system,[1],little or no activity
CC(=O)Oc1ccccc1C(=O)O [aspirin],activity in the RHP system,[1],little or no activity
"CC/C=C\C/C=C\C/C=C\CCCCCCCC(=O)NCc1ccc(O)c(OC)c1 [N-vanillyl-9Z,12Z,15Z-octadecatrienamide]",% Inhibition,[2],78.5 ± 31.9%
same,analgesia,[3],produces analgesia
same,reduction of inflammation,[3],reduces inflammation
same,Writhes/10 minutes,[4],0.4 ± 0.3 Writhes/10 minutes
same,analgesia,[5]; [11],producing analgesia
same,reduction of inflammation,[5]; [11],reducing inflammation
same,analgesia,[5]; [12],producing analgesia
same,reduction of inflammation,[5]; [12],reducing inflammation
same,analgesia,[6],produces analgesia
same,reduction of inflammation,[6],reduces inflammation
same,% Animals Analgesic,"[7]; Example X, 20 mg/kg oral in sesame oil, 1 hr post-dose, vehicle 0",70%
same,% Animals Analgesic,"[7]; Example X, 20 mg/kg oral in sesame oil, 2 hrs post-dose, vehicle 20",30%
same,% Animals Analgesic,"[7]; Example X, 20 mg/kg oral in sesame oil, 3 hrs post-dose, vehicle 0",10%
same,% Animals Analgesic,"[7]; Experiment A, 200 mg/kg oral in propylene glycol, 1 hr post-dose, vehicle 20",80%
same,% Animals Analgesic,"[7]; Experiment A, 200 mg/kg oral in propylene glycol, 2 hrs post-dose, vehicle 10",40%
same,% Animals Analgesic,"[7]; Experiment A, 200 mg/kg oral in propylene glycol, 3 hrs post-dose, vehicle 0",30%
same,% Animals Analgesic,"[7]; Experiment B, 200 mg/kg oral in propylene glycol, 1 hr post-dose, vehicle 0",50%
same,% Animals Analgesic,"[7]; Experiment B, 200 mg/kg oral in propylene glycol, 2 hrs post-dose, vehicle 20",60%
same,% Animals Analgesic,"[7]; Experiment B, 200 mg/kg oral in propylene glycol, 3 hrs post-dose, vehicle 0",20%
same,% Animals Analgesic,"[7]; Experiment C, 288 mg/kg oral in propylene glycol, 1 hr post-dose, vehicle 10",50%
same,% Animals Analgesic,"[7]; Experiment C, 288 mg/kg oral in propylene glycol, 2 hrs post-dose, vehicle 0",10%
same,% Animals Analgesic,"[7]; Experiment C, 288 mg/kg oral in propylene glycol, 3 hrs post-dose, vehicle 0",0%
"COc1cc(CNC(=O)CCCCC=CC(C)C)ccc1O [capsaicin, 8-methyl-N-vanillyl-6-nonenamide]",analgesia,[8],induces analgesia
"CC/C=C\C/C=C\C/C=C\CCCCCCCCCC(=O)NCc1ccc(O)c(OC)c1 [N-vanillyl-11Z,14Z,17Z-eicosatrienamide]",analgesic activity / potency compared with aspirin and opioids,[9],analgesic activity comparable to that of the opioids
same,reduction of inflammation,[3],substantially similar reduction of inflammation
same,Writhes/10 minutes,[4],0.4 ± 0.3 Writhes/10 minutes
same,reduction of inflammation,[5]; [11],substantially similar reduction of inflammation
same,reduction of inflammation,[5]; [12],substantially similar reduction of inflammation
same,"undesirable narcotic side effects (tolerance, physical dependence)",[10],does not exhibit undesirable narcotic side effects
same,reduction of inflammation,[6],substantially similar reduction of inflammation
"CCCCC/C=C\C/C=C\C/C=C\C/C=C\CCCC(=O)NCc1ccc(O)c(OC)c1 [N-vanillyl-5Z,8Z,11Z,14Z-eicosatetraenamide]",analgesia,[3],produces analgesia
same,reduction of inflammation,[3],reduces inflammation
same,analgesia,[5]; [11],produces analgesia
same,reduction of inflammation,[5]; [11],reduces inflammation
same,analgesia,[5]; [12],produces analgesia
same,reduction of inflammation,[5]; [12],reduces inflammation
same,analgesia,[6],produces analgesia
same,reduction of inflammation,[6],reduces inflammation
"CCCCC/C=C\C/C=C\C/C=C\CCCCC(=O)NCc1ccc(O)c(OC)c1 [N-vanillyl-6Z,9Z,12Z-octadecatrienamide]",% Inhibition,[2],100.7 ± 11.9%
same,reduction of inflammation,[3],substantially similar reduction of inflammation
same,Writhes/10 minutes,[4],0.0 ± 0.0 Writhes/10 minutes
same,reduction of inflammation,[5]; [11],substantially similar reduction of inflammation
same,reduction of inflammation,[5]; [12],substantially similar reduction of inflammation
same,reduction of inflammation,[6],substantially similar reduction of inflammation

# Source: US4898887A, “Compounds and compositions having anti-inflammatory and analgesic activity” (The Procter & Gamble Company, priority 1986, dated 1990)
